{"source": "patent US20250213526A1", "about": "“TRIPLE UPTAKE INHIBITOR FOR THE TREATMENT OF ATYPICAL DEPRESSION” (priority 2022, published 2025)", "assay_type_in_all_cases": "in vivo, rat", "key": {"[1]": {"system": "adult male Sprague Dawley rats", "assay": "Fixed ratio 1 (FR1) schedule probe", "source_text": "A fixed ratio 1 (FR1) schedule was used, and this task is the most food dense and appetite dependent operant schedule, with high sensitivity to appetite-related manipulations such as pre-feeding and appetite suppressant drugs.\nMethods. The same adult male Sprague Dawley rats (n=31) as in Example 5 were used in this study. Animals trained once daily on the PROG/Chow feeding choice procedure from Monday through Thursday. On Friday, the testing day, the animals were switched from the PROG/Chow feeding choice procedure to FR1 with no prior training. Each operant session lasted 30 minutes and lever presses were recorded at the end of the run. Drug treatment and the FR1 probe occurred on the Friday after two weeks of washout period from Example 5. A dose of 20.0 mg/kg of Compound 1 or vehicle was administered via oral gavage on the testing day. Only the highest dose was tested in this study because, in Example 5, it produced the most robust decrease in lever pressing and chow intake compared to VEH. Treatment conditions were assigned randomly. Treatment group difference was assessed by unpaired t-test. A p value of <0.05 was considered statistically significant."}, "male Sprague-Dawley rats": {"system": "male Sprague-Dawley rats", "assay": "Binge-like eating of chocolate", "conditions": "for chocolate intake vs VEH: 4 h pre-treatment, 1-hr session", "source_text": "Methods. A new group of male Sprague-Dawley rats (n=8; initial weight 300-325 g) was used for the binge-like eating experiment. They were pair-housed under the same conditions described above, however, they were not food restricted, and in the home cage were allowed ad libitum access to food (laboratory chow) and water. Acquisition of the binge-like eating took place over the course of 12 exposure sessions. A 3-day, 1-hr habituation exposure to an empty feeding cage with a ceramic dish took place before chocolate exposure. With chocolate exposure, rats received chocolate (0.3 g fat, 0.57 g carbohydrate, and 0.073 g protein with a total of 5.34 kcal/g) on days 1, 2, 4, 6, 7, 9, 12, 14, 15, 18, 23, and 28. On exposure days, rats were placed in an empty feeding cage with a ceramic dish containing ground chocolate for 1 hr. Weight of chocolate was taken before and after each session to determine intake.\nDrug Administration. Upon completion of the 12 acquisition sessions of binge-like eating rats continued to be exposed to chocolate sessions twice a week for 1-hr in empty feeding cages with a ceramic dish containing chocolate. One session was for maintenance of the binge-like behavior, and then the second was for drug treatment. These sessions took place randomly throughout the week with the maintenance session always occurring prior to the drug treatment session. Compound 1 was dissolved in 0.3% Tween 80 in dH2O. Vehicle (VEH), or doses of 5.0, 10.0, and 20.0 mg/kg were administered via oral gavage once a week for testing. A pre-treatment lead time of four hours was used. A within-subjects design was used in this study, with each rat receiving one treatment per week for a total of four weeks. Treatment conditions were selected randomly.\nData Analysis. Repeated measures ANOVA and planned comparisons were used to assess the effect of Compound 1 on binge-like eating of chocolate."}, "[2]": {"system": "adult male Sprague-Dawley rats", "assay": "Sleep/wake parameters, repeated measures", "conditions": "first 6 hours post-dosing, n=8", "protocol": "Using a counter-balanced, repeated measures design, three doses of Compound 1 (1-10 mg/kg, p.o.) were tested for their effects on sleep/wake parameters in adult male Sprague-Dawley rats (n=8). The results were compared with the effects on caffeine (10 mg/kg).\nMethods. Eight (n=8) adult male Sprague Dawley rats were used in this study. Each rat received Compound 1 at 3 doses (1, 3 and 10 mg/kg), vehicle (purified H2O-negative control) and caffeine (10 mg/kg—positive control). […] Sleep parameters (non-rapid eye movement sleep, NR; rapid eye movement sleep, REM) were recorded and the first 6 hours post-dosing records were analyzed."}}}
{"smiles": "CCC[C@]1(C(=O)c2ccc(Cl)c(Cl)c2)CCNC1", "note": "[Compound 1, (3,4-dichloro-phenyl)-((S)-3-propyl-pyrrolidin-3-yl)-methanone]", "values": [{"measurement": "rats that pressed the lever but refrained from eating some of the pellets", "setting": "[1]; 20.0 mg/kg oral gavage", "value": "6 of the 16"}, {"measurement": "lever pressing vs VEH in FR1 probe", "setting": "[1]; 20.0 mg/kg oral gavage, 30-minute session, unpaired t-test t=9.74, p<0.001", "value": "significant decrease in lever pressing"}, {"measurement": "uneaten pellets left in the food dishes of these animals", "setting": "[1]; 20.0 mg/kg, after the 30-minute operant session", "value": "5-10 pellets"}, {"measurement": "chocolate intake vs VEH", "setting": "male Sprague-Dawley rats; 5.0 mg/kg oral gavage, n=8, n.s.", "value": "did not significantly suppress chocolate intake"}, {"measurement": "chocolate intake vs VEH", "setting": "male Sprague-Dawley rats; 10.0 mg/kg oral gavage, n=8, p<0.001", "value": "significant reductions in chocolate intake"}, {"measurement": "chocolate intake vs VEH", "setting": "male Sprague-Dawley rats; 20.0 mg/kg oral gavage, n=8, p<0.001", "value": "significant reductions in chocolate intake"}, {"measurement": "binge eating in animal model (FIGS. 8 and 9)", "setting": "male Sprague-Dawley rats; rat, in vivo", "value": "effective in controlling binge eating"}, {"measurement": "REM sleep", "setting": "[2]; 3 mg/kg p.o.", "value": "reduced REM sleep, but to a lesser extent"}, {"measurement": "wake", "setting": "[2]; 3 mg/kg p.o.", "value": "significantly increased wake"}, {"measurement": "REM sleep", "setting": "[2]; 10 mg/kg p.o.", "value": "complete suppression of REM sleep"}, {"measurement": "wake", "setting": "[2]; 10 mg/kg p.o.", "value": "wake-promoting effects"}]}
